Data as given in patent US20260217701A1, “SELECTIVE BET INHIBITORS AND USES THEREOF” (Tay Therapeutics Limited, priority 2022, published 2026).
Where “and” joins values, the source holds several entries; their conditions need not be identical. Equal entries are not always repeated. Where two headings read alike, the source gives them in different places.

Columns and labels:
BRD4 BD2 = target: T1, BRD4 BD2 (Homo sapiens, UniProt O60885); assay: NanoBRET bromodomain assay, NanoLuc-BRD4-BD2 in HEK293 cells; format: binding
T1 construct: HEK293 cells were transfected using NanoLuc-BRD4-BD1 or NanoLuc-BRD4-BD2 fusion vectors
Protocol: Plates were then incubated at 37° C.+5% CO2 incubator for 2 hours.
Fold Selectivity Calculated (IC50 BD1/IC50 BD2).

[1] = tested on: collagen-induced arthritis; conditions: for average overall clinical score at plateau: around day 18-19
Protocol: (§1) The emulsion was cooled in an ice water bath during the formulation. The final concentration of collagen was 1 mg/mL. The emulsion is prepared fresh immediately prior to injection.
as §1
Experimental groups for the study are outlined in Table 5A. […] Animals in group one received no immunization.
IHC markers for staining were selected after evaluating clinical and histopathological scores for animals. After the skin was removed, the right hind limb was snap frozen in liquid nitrogen and RNA and protein analysis was performed.
Blood samples were collected from animals in groups 1-7 via cardiac puncture following euthanasia on Day 21. […] Serum was divided into two separate tubes and stored at −75±15° C. One tube was used to analyze IgG1, and the other tube was reserved for additional analyses.
H&E-stained slides of designated tissues from animals were transferred to an independent pathologist for microscopic evaluation (SPFBio). Samples were assigned the histologic grades based on the severity of change from tissue where CIA was not induced. Histology grades assigned were as follows: grade 1 (minimal change), grade 2 (mild change), grade 3 (moderate change), grade 4 (marked change), and grade 5 (severe change). A grade may be assigned for each indicator of disease severity: inflammation, mixed cell; granulation tissue; increased bone, periosteum; increased eroded surface, bone and erosion/ulcer, cartilaginous. […] Moderate inflammation was also associated with increased edema fluid, fibrin, and cellular debris. Marked mixed cell inflammation was characterized by dense, widespread accumulations of neutrophils and macrophages with lesser number of lymphocytes within one or more joint spaces, synovium and periarticular soft tissues. Marked inflammation was also associated with abundant edema fluid, fibrin, and cellular debris.
Marked granulation tissue (pannus) was associated with inflammation and was characterized by widespread fibrovascular connective tissue that expanded/replaced the periarticular soft tissues of one or more joints, extended into/expanded joint spaces, was contiguous with areas of erosion/ulcer in articular cartilage and/or increased eroded surface of bone, and variably extended along the diaphysis.
Marked increased periosteal bone (periosteal bone formation) was characterized by extensive areas of increased bone matrix and numerous prominent osteoblasts lining trabecular surfaces along the metaphysis and/or diaphysis of one or more bones.

[2] = CIA study: animal body weight; conditions: for Average animal body weight / Average animal body weight percent change: CIA

SMILES: Cn1cc(-c2ccccc2)c(-c2cn(C)c(=O)c3[nH]c(-c4cnn(C(F)(F)F)c4)cc23)cc1=O [Compound A, 6-methyl-4-(1-methyl-2-oxo-5-phenyl-1,2-dihydropyridin-4-yl)-2-(1-(trifluoromethyl)-1H-pyrazol-4-yl)-1,6-dihydro-7H-pyrrolo[2,3-c]pyridin-7-one]
- selectivity for BDII relative to GSK620 (BRD4 BD2): greater than about two orders of magnitude
- Selectivity (BD1/BD2) (BRD4 BD2; nanoBRET assay, given as symbol only, higher number denotes higher selectivity): >>>>
- BD2 (BRD4 BD2; nanoBRET assay, given as symbol only, lower number denotes higher potency): <
- EC50 (BRD4 BD2; previously determined, reference level for rat plasma concentrations (FIG. 4D), read-out: free EC50 BD2 BRD4 (converted)): 18.9 nM
- EC50 (BRD4 BD2; reference level for dog plasma concentrations (Dog PK study #4), read-out: free EC50 BD2 BRD4 (converted)): 14.5 nM
- EC50 (BRD4 BD2; stated with the CIA study PK, domain not stated, read-out: free EC50 (converted)): 17.2 nM
- plateau increase in paw volume relative to day 0 ([1]; 1 mg/kg (group 5), around day 18): approximately 50%
- animals exhibiting disease ([1]; 1 mg/kg (group 5), day 14): 5/8
- animals exhibiting disease ([1]; 1 mg/kg (group 5), day 18): 7/8
- percent inhibition in clinical score relative to GSK620 ([1]; 1 mg/kg and 3 mg/kg vs GSK620 10 mg/kg): nearly twice as high
- percent inhibition of increase in paw volume relative to GSK620 ([1]; 1 mg/kg or 3 mg/kg vs GSK620 10 mg/kg): more than twice
- plateau increase in paw volume relative to day 0 ([1]; 3 mg/kg): approximately 40%
- animals exhibiting disease ([1]; 3 mg/kg (group 6), day 15): 4/8
- animals exhibiting disease ([1]; 3 mg/kg (group 6), day 18): all animals
- animals exhibiting disease ([1]; 10 mg/kg (group 7), day 15): 4/8
- animals exhibiting disease ([1]; 10 mg/kg (group 7), day 18): 7/8
- decrease in paw volume relative to CIA+Vehicle ([1]; 10 mg/kg PO QD, Day 21): ~79%
- reduction in clinical score compared to vehicle-treated animals ([1]; 10 mg/kg PO QD, Day 21): ~71%
- rat anti-collagen IgG1 antibodies, lower than vehicle treated animals ([1]; 10 mg/kg, day 21, serum): > 98%
- plateau increase in paw volume relative to day 0 ([1]; 10 mg/kg, Group 7): approximately 35%
- rat anti-collagen IgG1 antibodies relative to untreated CIA animals ([1]; 1, 3 and 10 mg/kg, day 21, p<0.01): significantly decreased
- average overall clinical score at plateau ([1]; group 5 (1 mg/kg)): 5
- average overall clinical score at plateau ([1]; group 6 (3 mg/kg)): 4
- average overall clinical score at plateau ([1]; group 7 (10 mg/kg)): 4
- Animal body weight ([2]; CIA + Compound A 1 mg/kg, Day 8, 1 mg/kg): 172 g and 157 g and 170 g and 161 g and 171 g and 165 g
- Animal body weight ([2]; CIA + Compound A 1 mg/kg, Day 9, 1 mg/kg): 180 g and 156 g and 175 g and 162 g and 173 g and 170 g and 169 g
- Animal body weight ([2]; CIA + Compound A 1 mg/kg, Day 10, 1 mg/kg): 178 g and 155 g and 166 g and 170 g and 176 g
- Animal body weight ([2]; CIA + Compound A 1 mg/kg, Day 11, 1 mg/kg): 180 g and 157 g and 178 g and 162 g and 170 g and 175 g and 167 g
- Animal body weight ([2]; CIA + Compound A 1 mg/kg, Day 12, 1 mg/kg): 182 g and 158 g and 176 g and 162 g and 174 g and 177 g and 165 g
- Animal body weight ([2]; CIA + Compound A 1 mg/kg, Day 13, 1 mg/kg): 180 g and 158 g and 179 g and 160 g and 174 g and 172 g and 165 g
- Animal body weight ([2]; CIA + Compound A 1 mg/kg, Day 14, 1 mg/kg): 178 g and 159 g and 179 g and 155 g and 175 g and 170 g and 168 g
- Animal body weight ([2]; CIA + Compound A 3 mg/kg, Day 8, 3 mg/kg): 160 g and 174 g and 173 g and 169 g and 163 g and 165 g and 167 g and 157 g
- Animal body weight ([2]; CIA + Compound A 3 mg/kg, Day 9, 3 mg/kg): 162 g and 171 g and 178 g and 169 g and 160 g and 163 g and 170 g
- Animal body weight ([2]; CIA + Compound A 3 mg/kg, Day 10, 3 mg/kg): 162 g and 172 g and 177 g and 170 g and 168 g and 167 g
- Animal body weight ([2]; CIA + Compound A 3 mg/kg, Day 11, 3 mg/kg): 160 g and 172 g and 178 g and 169 g and 165 g
- Animal body weight ([2]; CIA + Compound A 3 mg/kg, Day 12, 3 mg/kg): 158 g and 176 g and 170 g and 167 g and 169 g and 172 g and 165 g
- Animal body weight ([2]; CIA + Compound A 3 mg/kg, Day 13, 3 mg/kg): 162 g and 175 g and 166 g and 173 g and 157 g and 168 g and 171 g
- Animal body weight ([2]; CIA + Compound A 3 mg/kg, Day 14, 3 mg/kg): 163 g and 177 g and 170 g and 175 g and 156 g and 167 g and 158 g
- Animal body weight ([2]; CIA + Compound A 10 mg/kg, Day 8, 10 mg/kg): 162 g
- Animal body weight ([2]; CIA + Compound A 10 mg/kg, Day 9, 10 mg/kg): 164 g
- Animal body weight ([2]; CIA + Compound A 10 mg/kg, Day 10, 10 mg/kg): 165 g
- Animal body weight ([2]; CIA + Compound A 10 mg/kg, Day 11, 10 mg/kg): 164 g
- Animal body weight ([2]; CIA + Compound A 10 mg/kg, Day 12, 10 mg/kg): 163 g
- Animal body weight ([2]; CIA + Compound A 10 mg/kg, Day 13, 10 mg/kg): 163 g
- Animal body weight ([2]; CIA + Compound A 10 mg/kg, Day 14, 10 mg/kg): 164 g
- Average animal body weight ([2]; Day 0, 1 mg/kg): 163
- Average animal body weight percent change ([2]; Day 0, 1 mg/kg): 0.00%
- Average animal body weight ([2]; Day 0, 3 mg/kg): 166
- Average animal body weight percent change ([2]; Day 0, 3 mg/kg): 0.00%
- Average animal body weight ([2]; Day 0, 10 mg/kg): 162
- Average animal body weight percent change ([2]; Day 0, 10 mg/kg): 0.00%
- Average animal body weight ([2]; Day 1, 1 mg/kg): 166
- Average animal body weight percent change ([2]; Day 1, 1 mg/kg): 1.55%
- Average animal body weight ([2]; Day 1, 3 mg/kg): 165
- Average animal body weight percent change ([2]; Day 1, 3 mg/kg): −0.19%
- Average animal body weight ([2]; Day 1, 10 mg/kg): 164
- Average animal body weight percent change ([2]; Day 1, 10 mg/kg): 1.12%
- Average animal body weight ([2]; Day 2, 1 mg/kg): 163
- Average animal body weight percent change ([2]; Day 2, 1 mg/kg): −0.07%
- Average animal body weight ([2]; Day 2, 3 mg/kg): 165
- Average animal body weight percent change ([2]; Day 2, 3 mg/kg): −0.57%
- Average animal body weight ([2]; Day 2, 10 mg/kg): 163
- Average animal body weight percent change ([2]; Day 2, 10 mg/kg): 0.71%
- Average animal body weight ([2]; Day 3, 1 mg/kg): 165
- Average animal body weight percent change ([2]; Day 3, 1 mg/kg): 0.96%
- Average animal body weight ([2]; Day 3, 3 mg/kg): 163
- Average animal body weight percent change ([2]; Day 3, 3 mg/kg): −1.45%
- Average animal body weight ([2]; Day 3, 10 mg/kg): 163
- Average animal body weight percent change ([2]; Day 3, 10 mg/kg): 0.63%
- Average animal body weight ([2]; Day 4, 1 mg/kg): 165
- Average animal body weight percent change ([2]; Day 4, 1 mg/kg): 1.26%
- Average animal body weight ([2]; Day 4, 3 mg/kg): 165
- Average animal body weight percent change ([2]; Day 4, 3 mg/kg): −0.35%
- Average animal body weight ([2]; Day 4, 10 mg/kg): 163
- Average animal body weight percent change ([2]; Day 4, 10 mg/kg): 0.72%
- Average animal body weight ([2]; Day 5, 1 mg/kg): 169
- Average animal body weight percent change ([2]; Day 5, 1 mg/kg): 3.76%
- Average animal body weight ([2]; Day 5, 3 mg/kg): 167
- Average animal body weight percent change ([2]; Day 5, 3 mg/kg): 0.70%
- Average animal body weight ([2]; Day 5, 10 mg/kg): 166
- Average animal body weight percent change ([2]; Day 5, 10 mg/kg): 2.60%
- Average animal body weight ([2]; Day 6, 1 mg/kg): 170
- Average animal body weight percent change ([2]; Day 6, 1 mg/kg): 4.33%
- Average animal body weight ([2]; Day 6, 3 mg/kg): 166
- Average animal body weight percent change ([2]; Day 6, 3 mg/kg): 0.43%
- Average animal body weight ([2]; Day 6, 10 mg/kg): 166
- Average animal body weight percent change ([2]; Day 6, 10 mg/kg): 2.04%
- Average animal body weight ([2]; Day 7, 1 mg/kg): 170
- Average animal body weight percent change ([2]; Day 7, 1 mg/kg): 3.94%
- Average animal body weight ([2]; Day 7, 3 mg/kg): 164
- Average animal body weight percent change ([2]; Day 7, 3 mg/kg): −0.93%
- Average animal body weight ([2]; Day 7, 10 mg/kg): 164
- Average animal body weight percent change ([2]; Day 7, 10 mg/kg): 0.89%
- Average animal body weight ([2]; Day 8, 1 mg/kg): 167
- Average animal body weight percent change ([2]; Day 8, 1 mg/kg): 2.26%
